The values that follow come from PubChem BioAssay AID1195 (EPA DSSTox, 2008).

The series concerns human maximum recommended daily dose, FDA database. Description: DSSTox (FDAMDD) FDA Maximum (Recommended) Daily Dose Database. Particulars: active compounds read low. The gist of the method:
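MRDD values come from clinical trials with daily oral dosing, usually for 3–12 months, for the average adult, in mg/day converted to mg/kg-bw/day assuming 60 kg. Antineoplastic mg/m2 doses are divided by 37. Activity score maps log10(1/MRDD mmol) onto 1–100.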

The mark [1] stands for this setting: TherapeuticCategory: diagnostic aid.
The mark [2] stands for this setting: TherapeuticCategory: antibacterial.
Setting [3] is: TherapeuticCategory: anthelmintic.
[4] abbreviates: TherapeuticCategory: antihypertensive.
The mark [5] stands for this setting: TherapeuticCategory: cardiotonic.
Setting [6] is: TherapeuticCategory: glucocorticoid.
The mark [7] stands for this setting: TherapeuticCategory: bronchodilator.
The mark [8] stands for this setting: TherapeuticCategory: sedative, hypnotic.
Where [9] appears, read: TherapeuticCategory: antidepressant.
[10] abbreviates: TherapeuticCategory: analgesic, anti inflammatory.
[11] abbreviates: TherapeuticCategory: antimigraine.
The mark [12] stands for this setting: TherapeuticCategory: vasodilator.

Several values for one entry are separate records, joined by “and”; a condition that tells them apart may be missing. Identical values can stand only once.

For the compound `CC(=O)Nc1c(I)c(C(=O)N[C@H]2C(O)O[C@H](CO)[C@@H](O)[C@@H]2O)c(I)c(N(C)C(C)=O)c1I` (stereo partly specified), the maximum recommended daily dose (mmol/kg-bw/day) under setting [1] was 0.132.

Regarding `COCCc1ccc(OCC(O)CNC(C)C)cc1` (stereo unspecified), the maximum recommended daily dose (mmol/kg-bw/day) (TherapeuticCategory: antihypertensive, antianginal) is 0.0249. Turning to `COCC1=C(C(=O)O)N2C(=O)[C@@H](NC(=O)/C(=N\OC)c3csc(N)n3)[C@H]2SC1`, the maximum recommended daily dose (mmol/kg-bw/day) under setting [2] is 0.0234. Consider `CCOC(=O)n1ccn(C)c1=S`, for which the maximum recommended daily dose (mmol/kg-bw/day) (TherapeuticCategory: thyroid inhibitor) is 0.00537. As for `C=CC[N+]1([C@H]2C[C@H]3[C@@H]4CC[C@H]5C[C@H](O)[C@@H](N6CCOCC6)C[C@]5(C)[C@H]4CC[C@]3(C)[C@H]2OC(C)=O)CCCC1`, where the note is “TherapeuticCategory: skeletal muscle relaxant, neuromuscular blocker”, the maximum recommended daily dose (mmol/kg-bw/day) was 0.00197.

For the compound `CCN(CC)C(=S)SSC(=S)N(CC)CC`, the maximum recommended daily dose (mmol/kg-bw/day) (TherapeuticCategory: alcohol deterrent) is 0.0281. Consider `O=C(CCCCC(=O)Nc1c(I)cc(I)c(C(=O)O)c1I)Nc1c(I)cc(I)c(C(=O)O)c1I`, for which, under setting [1], the maximum recommended daily dose (mmol/kg-bw/day) was 0.147. As to `COc1ccccc1OCC(O)CO` (stereo unspecified), the maximum recommended daily dose (mmol/kg-bw/day) (TherapeuticCategory: expectorant) is 0.101.

`CO[C@H]1[C@@H](O)[C@H](N)[C@@H](O[C@H]2O[C@H]([C@H](C)N)CC[C@H]2N)[C@H](O)[C@@H]1N(C)C(=O)CN`: under setting [2], the maximum recommended daily dose (mmol/kg-bw/day) is 0.0164. In the case of `C[N+](C)(CCOc1ccccc1)Cc1ccccc1`, the maximum recommended daily dose (mmol/kg-bw/day) under setting [3] was 0.163 and 0.094. Take `COC1[C@@H](O[C@@H]2O[C@H](C)[C@@H](O[C@H]3C[C@@](C)(O)[C@H](OC(=O)CC(C)C)[C@H](C)O3)[C@H](N(C)C)[C@H]2O)[C@@H](CC=O)C[C@@H](C)[C@@H](O)/C=C/C=C/C[C@@H](C)OC(=O)C[C@H]1OC(C)=O` (stereo partly specified): the maximum recommended daily dose (mmol/kg-bw/day) under setting [2] was 0.0604. With `Oc1ccc(Cl)cc1Cc1cc(Cl)ccc1O`, the maximum recommended daily dose (mmol/kg-bw/day) under setting [3] was 0.372. Take `CCN(CC)CCCN(c1ccccc1)C1Cc2ccccc2C1`: the maximum recommended daily dose (mmol/kg-bw/day) (TherapeuticCategory: antiarrhythmic) is 0.0155. For the compound `Nc1ccc(S(=O)(=O)c2ccc(N)cc2)cc1`, for the setting “TherapeuticCategory: antibacterial, dermatitis herpetiformis suppressant”, the maximum recommended daily dose (mmol/kg-bw/day) is 0.0201. Regarding `NS(=O)(=O)c1cc2c(cc1Cl)NC(CC1CCCC1)NS2(=O)=O` (stereo unspecified), under setting [4], the maximum recommended daily dose (mmol/kg-bw/day) is 6.58e-05.

As for `O=C(O)CCC(=O)c1ccc2c(c1)-c1cccc3cccc-2c13`, the maximum recommended daily dose (mmol/kg-bw/day) (TherapeuticCategory: choleretic) was 0.0552. As for `COc1ccccc1OCC1CNC(=O)O1` (stereo unspecified), the maximum recommended daily dose (mmol/kg-bw/day) (TherapeuticCategory: anxiolytic, skeletal muscle relaxant) was 0.0896. For the compound `O=C1CN(/N=C/c2ccc([N+](=O)[O-])o2)C(=O)N1`, the maximum recommended daily dose (mmol/kg-bw/day) under setting [2] is 0.028. On to `CCN1CC(CCN2CCOCC2)C(c2ccccc2)(c2ccccc2)C1=O` (stereo unspecified), for which the maximum recommended daily dose (mmol/kg-bw/day) (TherapeuticCategory: respiratory stimulant) is 0.0106.

In the case of `CCn1cc(C(=O)O)c(=O)c2cc3c(cc21)OCO3`, the maximum recommended daily dose (mmol/kg-bw/day) under setting [2] was 0.0957. As for `Cc1cc(O)c2ccccc2c1O`, the maximum recommended daily dose (mmol/kg-bw/day) (TherapeuticCategory: prothrombogenic vitamin) was 0.000959. Turning to `CCOC(=O)[C@H](CCc1ccccc1)N[C@@H](C)C(=O)N1CCC[C@H]1C(=O)O`, the maximum recommended daily dose (mmol/kg-bw/day) under setting [4] was 0.00177. On to `CC(C)=CCN1CC[C@@]2(C)c3cc(O)ccc3C[C@@H]1[C@@H]2C`, for which the maximum recommended daily dose (mmol/kg-bw/day) (TherapeuticCategory: narcotic analgesic) is 0.00876.

As for `CC(=O)O[C@H]1C[C@H](O[C@H]2[C@@H](O)C[C@H](O[C@H]3[C@@H](O)C[C@H](O[C@H]4CC[C@@]5(C)[C@H](CC[C@@H]6[C@@H]5CC[C@]5(C)[C@@H](C7=CC(=O)OC7)CC[C@]65O)C4)O[C@@H]3C)O[C@@H]2C)O[C@H](C)[C@H]1O`, the maximum recommended daily dose (mmol/kg-bw/day) under setting [5] was 4.13e-06. As for `CC(C)(C)CC(=O)OCC(=O)[C@@]1(O)CC[C@H]2[C@@H]3CCC4=CC(=O)C=C[C@]4(C)[C@H]3[C@@H](O)C[C@@]21C`, the maximum recommended daily dose (mmol/kg-bw/day) under setting [6] is 0.00726. Take `Cn1c(=O)c2c(ncn2CCOC(=O)C(C)(C)Oc2ccc(Cl)cc2)n(C)c1=O`: the maximum recommended daily dose (mmol/kg-bw/day) under setting [7] was 0.0297.

With `CN1CCN(C2=Nc3ccccc3Oc3ccc(Cl)cc32)CC1`, the maximum recommended daily dose (mmol/kg-bw/day) (TherapeuticCategory: anxiolytic) is 0.0127. Regarding `C=CCC1(CC=C)C(=O)NC(=O)NC1=O`, the maximum recommended daily dose (mmol/kg-bw/day) under setting [8] is 0.016. As to `CN(C)CC/C=C1\c2ccccc2CSc2ccccc21`, the maximum recommended daily dose (mmol/kg-bw/day) under setting [9] is 0.00846. On to `CC(C(=O)O)c1ccc2c(c1)Cc1cccnc1O2` (stereo unspecified), for which, under “TherapeuticCategory: anti inflammatory”, the maximum recommended daily dose (mmol/kg-bw/day) was 0.0147. On to `C[C@H]1C[C@@H]2[C@H]([C@@H](O)C[C@@]3(C)[C@H]2CC[C@]3(O)C(=O)CO)[C@@]2(C)C=CC(=O)C=C12`, for which the maximum recommended daily dose (mmol/kg-bw/day) under setting [6] is 0.0111.

In the case of `CC(C(=O)O)c1cccc(Oc2ccccc2)c1` (stereo unspecified), the maximum recommended daily dose (mmol/kg-bw/day) under setting [10] is 0.206. In the case of `Cn1c(=O)c2c(ncn2CC(O)CO)n(C)c1=O` (stereo unspecified), under setting [7], the maximum recommended daily dose (mmol/kg-bw/day) was 0.236.

With `CC(=O)Nc1c(I)c(C(=O)O)c(I)c(N(C)C(C)=O)c1I`, the maximum recommended daily dose (mmol/kg-bw/day) under setting [1] was 0.159. Regarding `CC(C)(C)NCC(O)CSc1nc(-c2ccc(C(N)=O)s2)cs1` (stereo unspecified), where the note is “TherapeuticCategory: antihypertensive, antianginal, antiarrhythmic”, the maximum recommended daily dose (mmol/kg-bw/day) was 0.000896.

Consider `CC[C@@H](CO)NC(=O)[C@@H]1C=C2c3cccc4c3c(cn4C)C[C@H]2N(C)C1`, for which the maximum recommended daily dose (mmol/kg-bw/day) under setting [11] was 0.000283. For `Cc1c(C)c2c(c(C)c1O)CCC(C)(COc1ccc(CC3SC(=O)NC3=O)cc1)O2` (stereo unspecified), for the setting “TherapeuticCategory: antidiabetic”, the maximum recommended daily dose (mmol/kg-bw/day) was 0.0226. `CC(C)N=C(N)/N=C(\N)Nc1ccc(Cl)c(Cl)c1`: the maximum recommended daily dose (mmol/kg-bw/day) (TherapeuticCategory: antimalarial) is 0.00116. On to `CC(=O)O[C@]1(C(C)=O)CC[C@H]2[C@@H]3C=C(Cl)C4=CC(=O)CC[C@]4(C)[C@H]3CC[C@@]21C`, for which the maximum recommended daily dose (mmol/kg-bw/day) (TherapeuticCategory: progestogen, antineoplastic) was 8.22e-05.

Consider `C=CCOc1ccc(CC(=O)O)cc1Cl`, for which the maximum recommended daily dose (mmol/kg-bw/day) (TherapeuticCategory: analgesic, antipyretic, anti inflammatory) was 0.00737.

As for `CC(COc1ccccc1)NC(C)C(O)c1ccc(O)cc1` (stereo unspecified), under setting [12], the maximum recommended daily dose (mmol/kg-bw/day) is 0.00441. Regarding `Cc1cccc(CN2CCN(C(c3ccccc3)c3ccc(Cl)cc3)CC2)c1` (stereo unspecified), the maximum recommended daily dose (mmol/kg-bw/day) (TherapeuticCategory: antiemetic) is 0.00427. On to `COc1ccc2c(c1OC)C(=O)O[C@@H]2[C@H]1c2c(cc3c(c2OC)OCO3)CCN1C`, for which the maximum recommended daily dose (mmol/kg-bw/day) (TherapeuticCategory: antitussive) was 0.00605. Turning to `Cc1cc2nc3c(=O)[nH]c(=O)nc-3n(C[C@H](O)[C@H](O)[C@H](O)CO)c2cc1C`, the maximum recommended daily dose (mmol/kg-bw/day) (TherapeuticCategory: enzyme cofactor vitamin) was 0.00133. Take `CO/N=C(\C(=O)N[C@@H]1C(=O)N2C(C(=O)O)=CCS[C@H]12)c1csc(N)n1`: the maximum recommended daily dose (mmol/kg-bw/day) under setting [2] is 0.261. As to `OCc1cccnc1`, the maximum recommended daily dose (mmol/kg-bw/day) under setting [12] is 0.0458. On to `CC[C@H](C)C(=O)O[C@H]1C[C@@H](C)C=C2C=C[C@H](C)[C@H](CC[C@@H]3C[C@@H](O)CC(=O)O3)[C@H]21`, for which, where the note is “TherapeuticCategory: antihypercholesterolemic”, the maximum recommended daily dose (mmol/kg-bw/day) is 0.00329. With `CC(=O)O[C@H]1C[C@H](O[C@H]2[C@@H](O)C[C@H](O[C@H]3[C@@H](O)C[C@H](OC4CC[C@@]5(C)[C@H](CC[C@@H]6[C@@H]5CC[C@]5(C)[C@@H](C7=CC(=O)OC7)CC[C@]65O)C4)O[C@@H]3C)O[C@@H]2C)O[C@H](C)[C@H]1O[C@@H]1O[C@H](CO)[C@@H](O)[C@H](O)[C@H]1O` (stereo partly specified), the maximum recommended daily dose (mmol/kg-bw/day) under setting [5] was 3.44e-05. For the compound `Clc1ccc2c(c1)C(N1CCNCC1)=Nc1ccccc1O2`, the maximum recommended daily dose (mmol/kg-bw/day) under setting [9] is 0.0319. Consider `Oc1c(I)cc(Cl)c2cccnc12`, for which the maximum recommended daily dose (mmol/kg-bw/day) (TherapeuticCategory: topical anti infective, antiamebic) is 0.0818.

For `O[C@@H]([C@H](O)[C@@H](O)CBr)[C@@H](O)CBr`, the maximum recommended daily dose (mmol/kg-bw/day) (TherapeuticCategory: antineoplastic) is 0.0135. For the compound `CN1CCC(=C2c3ccccc3C=Cc3ccccc32)CC1`, the maximum recommended daily dose (mmol/kg-bw/day) (TherapeuticCategory: antihistaminic, antipruritic) was 0.00174. Consider `COc1ccnc(CS(=O)c2nc3ccc(OC(F)F)cc3[nH]2)c1OC` (stereo unspecified), for which the maximum recommended daily dose (mmol/kg-bw/day) (TherapeuticCategory: antiulcerative) was 0.00174. As for `Cc1cc(CC(=O)O)n(C)c1C(=O)c1ccc(Cl)cc1`, the maximum recommended daily dose (mmol/kg-bw/day) under setting [10] was 0.0343. For `CCCc1nc2c(C)cc(-c3nc4ccccc4n3C)cc2n1Cc1ccc(-c2ccccc2C(=O)O)cc1`, the maximum recommended daily dose (mmol/kg-bw/day) under setting [4] was 0.00258. On to `CC(=O)Oc1ccc(C(c2ccc(OC(C)=O)cc2)c2ccccn2)cc1`, for which, for the setting “TherapeuticCategory: cathartic”, the maximum recommended daily dose (mmol/kg-bw/day) is 0.000692. In the case of `CCCCCCc1ccc(O)cc1O`, the maximum recommended daily dose (mmol/kg-bw/day) (TherapeuticCategory: antihelmintic, antiseptic) was 0.0858. Turning to `CNC(=O)Oc1ccc2c(c1)[C@]1(C)CCN(C)[C@@H]1N2C`, the maximum recommended daily dose (mmol/kg-bw/day) (TherapeuticCategory: cholinergic, miotic) was 6.07e-05.

Take `O=C1OC(c2ccc(O)c(S(=O)(=O)O)c2)(c2ccc(O)c(S(=O)(=O)O)c2)c2c(Br)c(Br)c(Br)c(Br)c21`: the maximum recommended daily dose (mmol/kg-bw/day) under setting [1] was 0.00597. With `NCC(=O)O`, the maximum recommended daily dose (mmol/kg-bw/day) (TherapeuticCategory: none) was 1.33.

With `CC1=C(/C=C/C(C)=C/C=C/C(C)=C\C(=O)O)C(C)(C)CCC1`, the maximum recommended daily dose (mmol/kg-bw/day) (TherapeuticCategory: keratolytic) was 0.00666.

For the compound `NNc1nncc2ccccc12`, the maximum recommended daily dose (mmol/kg-bw/day) under setting [4] was 0.0208.

On to `CN(C)CCCN1c2ccccc2Sc2ccc(Cl)cc21`, for which the maximum recommended daily dose (mmol/kg-bw/day) (TherapeuticCategory: antiemetic, antipsychotic) was 0.0524. `CN[C@@H]1CCc2[nH]c3ccc(C(N)=O)cc3c2C1`: under setting [11], the maximum recommended daily dose (mmol/kg-bw/day) was 0.000514.

For `NC(=O)OCC(COC(N)=O)c1ccccc1`, the maximum recommended daily dose (mmol/kg-bw/day) (TherapeuticCategory: anticonvulsant) was 0.252. Regarding `CCC1(C2=CCCCC2)C(=O)NC(=O)NC1=O`, the maximum recommended daily dose (mmol/kg-bw/day) under setting [8] was 0.0282.
